Experimental data from patent US20250213527A1, “FORMULATIONS OF PSILOCYBIN ANALOGS AND METHODS OF USE” (priority 2021, published 2025).
“Also recorded” adds a separate entry of the source. Where a name gives a salt, the structure may show the parent alone. Marks after values point to notes of the source that are not given here.

Columns and labels:
[1] = Solubility in FaSSGF (Fasted State Simulated Gastric Fluid) at 37 °C; type: physicochemical; conditions: free base component, average n=2
Protocol: Preparation of solutions: Solubility tests in FaSSGF were carried out at 37° C. and in water at room temperature for 2 hour and 6 hour timepoints. 50 mg solid was added to 0.5 mL media and incubated on an orbital shaker for 6 hours. (For free base in water 20 mg samples were used). Slurry/solution was sampled at 2 and 6 hours and aliquots were filtered through 0.45 micron PTFE filters. The filtrate was diluted 500 fold with the appropriate (same) media and injected on to UPLC.
(For free base in water ≥40 mg·mL^−1). […] Results were calculated based on a standard calibration curve of appropriate free base. Values quoted are for the free base component of each salt and are average of two (n=2) determinations.

[2] = Maturation in 12 different solvents with thermal cycling, XRPD; type: physicochemical; conditions: slurries cycled between room temperature and 50 °C (4 hours each) for 3 days
Protocol: The resulting slurries were subjected to maturation with thermal cycling between room temperature and 50° C. (4 hours at each condition) for 3 days. Solids were then analysed by XRPD.

[3] = Long-term (up to 25 days) psilocin stability in citric acid solution and sodium citrate buffer; type: physicochemical; conditions: 0.1 M
Protocol: The long-term stability (up to 25 days) of psilocin in a citric acid solution (0.1 M, pH 1.60) and a sodium citrate buffer (0.1 M, pH 6.01) at 4C and 23° C. was assessed.
(§1) Preparation of 0.1 M sodium citrate buffer (pH 6.01): 2.427 g of sodium citrate dihydrate and 0.336 g of citric acid were dissolved in 80 ml of DI water. The pH was adjusted to 6.0 using a 1 M NaOH solution. The final volume was adjusted to 100 ml.
Test solutions: Psilocin (1 mg/ml), was mixed with (i) sodium citrate buffer (0.1 M, pH 6.01) and (ii) citric acid solution (0.1 M, pH 1.60) in 1:1 v/v. The samples were stored at 4° C. and 23° C., and aliquots were sampled at designated timepoints (days 0, 7, 17, and 25).

[4] = Psilocin stability with cyclodextrin complexes, 40 °C; conditions: 1% w/w cyclodextrin, up to 24 h
[5] = Plasma pharmacokinetics and bioavailability in rats, oral gavage and intravenous (bolus); conditions: for Tmax: rat plasma, label = analyte, IAD = immediately after dosing
[6] = Psilocin stability in 0.1 M sodium citrate buffer at 4, 23 and 40 °C; type: physicochemical
Protocol: as §1

[7] = Psilocin stability with antioxidants against metal induced degradation, 40 °C; conditions: 20 μM antioxidant, up to 24 h
[8] = Psilocin stability in dilute citric acid solution at 4, 23 and 40 °C
[9] = Psilocin stability comparison between sodium citrate and phosphate buffer, 40 °C; type: physicochemical; conditions: 0.1 M, 24 h
Protocol: The effect of buffer type and pH on the stability of psilocin was assessed.
as §1
Preparation of 0.1 M phosphate buffer (pH 6.0 and pH 7.5): Monosodium phosphate (0.339 g, 0.002 moles) and disodium phosphate (2.021 g, 0.014 moles) were dissolved in 80 ml water and the pH was adjusted as necessary using sodium hydroxide or phosphoric acid. The volume was adjusted to 100 ml using water.
Test solutions: Psilocin (1 mg/ml) was mixed with (i) 0.1 M sodium citrate buffer (pH 6.01), (ii) 0.1 M phosphate buffer (pH 6.0), and (iii) 0.1 M phosphate buffer (pH 7.5) in a 1:1 v/v ratio.

[10] = Psilocin stability in 0.1 M acid solutions with or without metal ions, 40 °C; type: physicochemical; conditions: up to 24 h
Source text: Ascorbic acid (AsA), acetic acid (AcA), tartaric acid (TA), fumaric acid (FA), citric acid (CA), malic acid (MA), benzenesulfonic acid (BSA), stearic acid (SA), sodium citrate dihydrate, monosodium phosphate hydrate, disodium phosphate were purchased from Sigma Aldrich. Aluminum (III) chloride (AlCl3) and iron (III) chloride (FeCl3) were purchased from Sigma Aldrich. Antioxidants, i.e., ethylenediaminetetraacetic acid (EDTA), ascorbic acid (AsA), L-cysteine (Cys), sodium metabisulfite (NamBiSO3) and propyl gallate (PG) were purchased from Sigma Aldrich. Hydroxypropyl-β-cyclodextrin (CAVASOL® W7 HP, CAVITRON® W7 HP7) and methyl-β-cyclodextrin (CAVASOL® W7 M) were provided by DuPont.
The following chromatographic conditions were used:
Diluent. The diluent used in the below studies was prepared as follows: 100 mL of acetonitrile (ACN) was mixed with 800 mL of water and 100 mL of 1.0 M citric acid and mixed well to prepare 1 L of diluent.
The stability of psilocin in 0.1 M solutions of various acids was tested.
Test solutions: To prepare the test solutions, 0.1 M solutions of AsA, AcA, TA, FA, CA, MA, BSA, and SA were prepared in DI water.

[11] = Observation of isolated freeze dried solid; type: physicochemical; conditions: freeze dried citrate salt
Protocol: This gave an oil. Additional water was added until a solution was obtained. […] The obtained citrate salt was amorphous as shown by X-ray powder diffraction (XRPD) pattern in FIG. 37A.

[12] = Brain tissue concentrations in rats after intravenous dosing
[13] = Group 3, IV, psilocybin dosed 2.8 mg/kg

## [2H]C([2H])([2H])N(C([2H])([2H])[2H])C([2H])([2H])C([2H])([2H])c1c[nH]c2cccc(O)c12 [Compound I-3j, Benzoate Salt of 3-(2-(bis(methyl-d3)amino)ethyl-1,1,2,2-d4)-1H-indol-4-ol]
[1]
  Solubility FaSSGF 6 hours: 12.79 mg/mL
[2]
  crystalline form by XRPD after maturation in 12 different solvents: retained their initial crystalline form (pattern 1)

## CN(C)CCc1c[nH]c2cccc(O)c12 [Compound I-7, 3-(2-(dimethylamino)ethyl)-1H-indol-4-ol]
[3]; pH 1.60, 4 °C and 23 °C
  long-term stability in citric acid solution: only minimal degradation
[3]; pH 6.01, 4 °C
  long-term stability in sodium citrate buffer, cold storage: remained stable for up to 17 days
[3]; pH 6.01, 23 °C
  long-term stability in sodium citrate buffer, room temperature: degradation of psilocin began within a week
[4]
  stability with cyclodextrins against high temperature or metal induced degradation: cyclodextrins did not impart stability
[5]; Group 1, IV, psilocin + psilocin-d10 1 + 1 mg/kg
  Tmax: IAD
[5]; [13]
  Tmax: IAD
[5]; rats, oral
  onset, duration and variability of plasma exposure versus oral psilocybin: a faster onset, a shorter duration of effect, and less variability in drug exposure than oral psilocybin
[6]; 0.1 M sodium citrate buffer pH 6.01
  effect of metal salts (Fe3+ and Al3+) in citrate buffer: no detrimental effects
[6]; 4, 23 and 40 °C
  solution stability in non-citrate buffered solutions with Fe3+ and Al3+: significant psilocin degradation
  solution stability without sodium citrate buffer: nearly all psilocin being degraded by the 18 hour time point
[6]; 40 °C, up to 24 h
  degradation of psilocin in 0.1 M sodium citrate buffer: 10-15%
[6]; pH 6.01, 4 °C and room temperature, up to 24 h
  solution stability in 0.1 M sodium citrate buffer: greatly stabilized psilocin
[7]
  stability against metal salts with antioxidants (EDTA, ascorbic acid, L-cysteine, sodium metabisulfite, propyl gallate): none of the antioxidants tested were able to provide stability
[8]; 4, 23 and 40 °C
  solution stability without citric acid: nearly all psilocin being degraded by the 18 hour time point
  solution stability without citric acid in presence of Fe3+ and Al3+: significant psilocin degradation
[8]; 4 °C and room temperature (23 °C), up to 24 h
  solution stability with small quantities of citric acid (pH 3.2): greatly enhanced the stability of psilocin
[8]; 40 °C, 24 hour time point
  psilocin stabilization (% psilocin remaining) with small quantities of citric acid: 30%
[9]
  stability in phosphate buffer pH 6.0 versus pH 7.5: better stability than at pH 7.5
[10]; all tested acids
  solution stability in 0.1 M acid solutions (solution-phase salts), with or without metal salts: excellent stability
[10]
  solution stability of psilocin without acid: nearly all psilocin being degraded within 24 hours
  solution stability without acid in presence of Fe3+ and Al3+ metal ions: significant psilocin degradation

## CN(C)CCc1c[nH]c2cccc(O)c12 [Compound I-7a, benzenesulfonate salt of 3-(2-(dimethylamino)ethyl)-1H-indol-4-ol]
[2]
  crystalline form by XRPD after maturation in 12 different solvents: retained their initial crystalline form (pattern 1)

## CN(C)CCc1c[nH]c2cccc(O)c12 [Compound I-7b, tartrate salt of 3-(2-(dimethylamino)ethyl)-1H-indol-4-ol]
[2]
  crystalline form by XRPD after maturation in 12 different solvents: retained their initial crystalline form

## CN(C)CCc1c[nH]c2cccc(O)c12 [Compound I-7c, Hemi-Fumarate Salt of 3-(2-(dimethylamino)ethyl)-1H-indol-4-ol]
[1]
  Solubility FaSSGF 6 hours: ≥ 52.25* mg/mL
[2]
  crystalline form by XRPD after maturation in 12 different solvents: complex polymorphism with multiple crystalline patterns obtained

## CN(C)CCc1c[nH]c2cccc(O)c12 [Compound I-7e, Citrate Salt of 3-(2-(dimethylamino)ethyl)-1H-indol-4-ol]
[11]
  behaviour of isolated amorphous solid: hygroscopic and rapidly became sticky

## CN(C)CCc1c[nH]c2cccc(O)c12 [Compound I-7j, Benzoate Salt of 3-(2-(dimethylamino)ethyl)-1H-indol-4-ol]
[1]
  Solubility FaSSGF 6 hours: 9.79 mg/mL
[2]
  crystalline form by XRPD after maturation in 12 different solvents: retained their initial crystalline form; also recorded: the same pattern 1 by XRPD was observed

## CN(C)CCc1c[nH]c2cccc(OP(=O)(O)O)c12 [psilocybin, Psilocybin]
[12]
  brain concentrations of psilocybin versus plasma: brain concentrations of psilocybin are low
[5]; male, Sprague Dawley, rat, plasma, po, 14 mg/kg
  bioavailability: < 0.1%
[5]; [13]
  Tmax: IAD
